# pIC50: −log10 of the molar value.
# Assays:
# IL-10 = test: Increasing levels of IL-10 in mice (plasma ELISA); type: in vivo; details: IP, mouse plasma, 90 or 105 minutes
# Procedure: Isoquinoline compounds were administered intraperitoneally to mice in doses of 30, 100 or 300 μg/mouse or orally in doses of 300 or 600 μg/mouse. Levels of IL-10 were measured 90 or 105 minutes after administration as indicated. Samples were collected and diluted, when appropriate, as described in Example VI. A 100 μl sample of plasma was assayed by ELISA for IL-10. Briefly, ELISA plates were coated with rat anti-mouse IL-10 monoclonal antibody (Pharmingen; San Diego Calif.). Samples or known concentrations of IL-10 were added to the coated plates and incubated for 2 hr at 37° C. Plates were washed and incubated with biotinylated rat anti-mouse IL-10 (R&D Systems; Minneapolis Minn.) for 1 hr at 37° C. Plates were washed and incubated with streptavidin-HRP 30 min at 37° C., and HRP activity was detected with hydrogen peroxide and TMB using standard immunoassay procedures.
# MCR-1 = target: T1, MCR-1 (Homo sapiens, UniProt Q01726); test: Melanocortin receptor binding assay, competition with 125I-HP 467, HEK 293 cells expressing hMCR-1; details: for pIC50: inhibition of binding of 125I-HP 467, HEK 293 cells expressing MCR-1, read-out: MC-1 IC50
# T1 construct: expressed in transfected cells; host or cells: HEK 293
# Procedure, shortened: (§1)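 Intact-cell competition binding, 2.5 hr at 37 °C, in PBS/10% calf serum/1 mM CaCl2; hMCR-4 cells at 4×10^3 per tube, hMCR-1 cells at 2×10^4 per tube. Filtration on BSA/CaCl2-soaked GF/B, cold 50 mM Tris pH 7.4 washes, scintillation count.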
# TNF-α = test: Reduction of lipopolysaccharide-induced tumor necrosis factor levels in mice; type: in vivo, BALB/c female mice; details: IP, plasma 90 or 105 minutes after LPS, mean ± SEM
# Procedure: BALB/c female mice weighing approximately 20 g were placed into a control group and a treated group. Five mg/kg of LPS in 0.9% saline was administered (100 μl to give 100 μg LPS per mouse) by intraperitoneal (IP) injection to all mice. Mice in the treatment group received either 30, 100, 300 or 600 μg of various isoquinoline compounds per mouse in a volume of 100 μl of PBS. Control mice received 100 μl of saline alone. One minute after initial injections all mice received the LPS injection. As a positive control, 100 μg of HP 228 was injected per mouse.
# Blood samples were collected from the orbital sinus of treated and control mice 90 minutes or 105 minutes after LPS administration. The plasma was separated by centrifugation at 3000×g for 5 min and stored at −20° C. Samples were thawed and diluted, if TNF-α concentration was greater than 3200 pg/ml, with PBS containing 1% bovine serum albumin, 10% donor horse serum, 1% normal mouse serum, 0.05% TWEEN-20 and 0.05% thimerosal. A 100 μl sample of plasma was assayed by ELISA for TNF-α. Briefly, ELISA plates were coated with hamster anti-mouse TNF-α antibody (Genzyme; Cambridge Mass.). Samples or known concentrations of TNF-α were added to the coated plates and incubated for 2 hr at 37° C. Plates were washed and subsequently incubated with biotinylated rabbit anti-mouse TNG-α for 1 hr at 37° C. Plates were washed and incubated with streptavidin-HRP for 1 hr at 37° C., and HRP activity was detected with hydrogen peroxide and o-phenylenediamine (OPD) using standard immunoassay procedures.
# The mean (±SEM) TNF-α level in five mice from each group was determined and the percent reduction in TNF-α levels was calculated.
# MCR-4 = target: T2, MCR-4 (Homo sapiens, UniProt P32245); test: Melanocortin receptor binding assay, competition with 125I-HP 467, HEK 293 cells expressing hMCR-4; details: inhibition of binding of 125I-HP 467, HEK 293 cells expressing MCR-4; read-out: MC-4 IC50
# T2 construct: expressed in transfected cells; host or cells: HEK 293
# Procedure, shortened: as §1
# [1] = tested on: arachidonic acid induced dermal inflammation; test: Arachidonic acid induced dermal inflammation (ear thickness); type: in vivo, Female BALB/c mice; details: administered orally; TRG 2405-241 600 μg/mouse, indomethacin 1 mg/mouse; FIG. 2
# Procedure: Female BALB/c mice (17-22 g) were used and administered the test isoquinoline compounds or positive control compounds 30 to 60 min prior to topical application of arachidonic acid. Indomethacin and HP 228 were used as positive controls. Compounds were administered orally (p.o.) or intraperitoneally (i.p.). Initial ear thickness (left and right) was measured using spring loaded micro-calipers. Arachidonic acid was applied to mice anesthetized with a cocktail of ketamine/xylazine (7.0 mg/ml and 0.6 mg/ml, respectively) administered i.p. (300 μl/mouse). Utilizing a micro-pipette, 20 μl of arachidonic acid solution (100 mg/ml ethanol or acetone) was applied to the right ear (10 μl to inner and 10 μl to outer surfaces of […] for a total of 2 mg arachidonic acid per right ear), and 20 μl of vehicle (ethanol or acetone) was applied to the left ear. Mice were returned to their cages to recover. Mice were again anesthetized 50 min after arachidonic acid application and their ears measured.
# Dermal inflammation was determined by subtracting the difference of the vehicle treated left ear (L60−L0) from the difference of the arachidonic acid treated right ear (R60−R0). Ear thickness measurements were averaged for each group, and the responses in the vehicle treated control group (Cr; saline or PBS) were subtracted from the response noted in the isoquinoline compound treated group (Tr) to give the relative inflammatory response for each treatment group compared to the control group. The percent inhibition is defined by the equation: % inhibition=(Cr−Tr)/(Cr)×100.
# T1 sequence (Q01726 whole entry): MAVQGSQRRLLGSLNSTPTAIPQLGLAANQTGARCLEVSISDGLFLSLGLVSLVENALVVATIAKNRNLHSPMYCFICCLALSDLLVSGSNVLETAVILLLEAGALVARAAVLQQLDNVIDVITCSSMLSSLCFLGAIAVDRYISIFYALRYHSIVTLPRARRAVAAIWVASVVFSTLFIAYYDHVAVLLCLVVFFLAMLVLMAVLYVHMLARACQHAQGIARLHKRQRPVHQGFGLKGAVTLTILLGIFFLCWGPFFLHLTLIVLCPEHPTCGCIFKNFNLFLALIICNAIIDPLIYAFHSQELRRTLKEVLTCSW
# T2 sequence (P32245 whole entry): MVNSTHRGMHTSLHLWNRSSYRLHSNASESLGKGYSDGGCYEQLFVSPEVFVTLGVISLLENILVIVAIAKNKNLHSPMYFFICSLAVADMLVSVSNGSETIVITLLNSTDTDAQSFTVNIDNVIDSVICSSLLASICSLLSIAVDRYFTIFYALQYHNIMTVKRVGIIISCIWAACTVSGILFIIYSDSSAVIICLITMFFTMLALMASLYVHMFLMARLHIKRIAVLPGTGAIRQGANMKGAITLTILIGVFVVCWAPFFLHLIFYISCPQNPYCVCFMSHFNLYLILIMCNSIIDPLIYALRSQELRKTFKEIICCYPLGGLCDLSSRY
SMILES,pIC50 (MCR-4),pIC50 (MCR-1),further results
CNC(CN)CCCCN1Cc2ccccc2C(CNC2CCCCC2)C1c1ccc(OC)c(S(=O)(=O)O)c1 (stereo not drawn) [TRG 2405-268],,,"% IL-10 Induction, IP 30 (IL-10; 30 μg per mouse): −3 ± 16%; % IL-10 Induction, IP 300 (IL-10; 300 μg per mouse): 6 ± 17%; % Disp. of 125I-HP 467 (first of duplicate) (MCR-1; 10 μM isoquinoline compound, HEK 293 cells expressing MCR-1, duplicate 1): 0%; % Disp. of 125I-HP 467 (second of duplicate) (MCR-1; 10 μM isoquinoline compound, HEK 293 cells expressing MCR-1, duplicate 2): 3.6%; % TNF-α Inhibtion, IP 30 (TNF-α; 30 μg per mouse): −58 ± 18%; % TNF-α Inhibtion, IP 300 (TNF-α; 300 μg per mouse): 9 ± 23%"
CCOc1ccc(CCNCC2c3ccccc3CN(CCCCC(CN)NCc3ccc(OC)cc3)C2c2cc(C(F)(F)F)cc(C(F)(F)F)c2)cc1 (stereo not drawn) [TRG 2421-24],5.65,5.63,
CCOc1ccc(CCNCC2c3ccccc3CN(CCCCC(CN)NCc3ccc(-c4ccccc4)cc3)C2c2cc(C(F)(F)F)cc(C(F)(F)F)c2)cc1 (stereo not drawn) [TRG 2421-25],4.96,5.00,
NCC(CCCCN1Cc2ccccc2C(CNCCc2ccc(Oc3ccccc3)cc2)C1c1cc(C(F)(F)F)cc(C(F)(F)F)c1)NCc1ccccc1 (stereo not drawn) [TRG 2421-26],4.89,4.94,
Cc1ccc(CNC(CN)CCCCN2Cc3ccccc3C(CNCCc3ccc(Oc4ccccc4)cc3)C2c2cc(C(F)(F)F)cc(C(F)(F)F)c2)cc1 (stereo not drawn) [TRG 2421-27],5.03,5.14,
COc1ccc(CNC(CN)CCCCN2Cc3ccccc3C(CNCCc3ccc(Oc4ccccc4)cc3)C2c2cc(C(F)(F)F)cc(C(F)(F)F)c2)cc1 (stereo not drawn) [TRG 2421-29],5.10,5.29,
NCC(CCCCN1Cc2ccccc2C(CNCCc2ccc(Cl)cc2)C1c1cc(C(F)(F)F)cc(C(F)(F)F)c1)NCc1ccccc1 (stereo not drawn) [TRG 2421-31],5.56,5.23,
Cc1ccc(CNC(CN)CCCCN2Cc3ccccc3C(CNCCc3ccc(Cl)cc3)C2c2cc(C(F)(F)F)cc(C(F)(F)F)c2)cc1 (stereo not drawn) [TRG 2421-32],5.38,5.24,
NCC(CCCCN1Cc2ccccc2C(CNCCc2ccc(Cl)cc2)C1c1cc(C(F)(F)F)cc(C(F)(F)F)c1)NCc1ccc(Br)cc1 (stereo not drawn) [TRG 2421-33],5.08,5.16,
COc1ccc(CNC(CN)CCCCN2Cc3ccccc3C(CNCCc3ccc(Cl)cc3)C2c2cc(C(F)(F)F)cc(C(F)(F)F)c2)cc1 (stereo not drawn) [TRG 2421-34],5.58,5.30,
COc1cccc(CCNCC2c3ccccc3CN(CCCCC(CN)NCc3ccccc3)C2c2cc(C(F)(F)F)cc(C(F)(F)F)c2)c1 (stereo not drawn) [TRG 2421-36],6.05,5.40,
COc1cccc(CCNCC2c3ccccc3CN(CCCCC(CN)NCc3ccc(C)cc3)C2c2cc(C(F)(F)F)cc(C(F)(F)F)c2)c1 (stereo not drawn) [TRG 2421-37],6.08,5.51,
COc1cccc(CCNCC2c3ccccc3CN(CCCCC(CN)NCc3ccc(Br)cc3)C2c2cc(C(F)(F)F)cc(C(F)(F)F)c2)c1 (stereo not drawn) [TRG 2421-38],5.87,5.13,
COc1ccc(CNC(CN)CCCCN2Cc3ccccc3C(CNCCc3cccc(OC)c3)C2c2cc(C(F)(F)F)cc(C(F)(F)F)c2)cc1 (stereo not drawn) [TRG 2421-39],5.98,5.48,
COc1cccc(CCNCC2c3ccccc3CN(CCCCC(CN)NCc3ccc(-c4ccccc4)cc3)C2c2cc(C(F)(F)F)cc(C(F)(F)F)c2)c1 (stereo not drawn) [TRG 2421-40],5.40,4.92,
NCC(CCCCN1Cc2ccccc2C(CNCCc2ccccc2)C1c1cccc(C(F)(F)F)c1)NCc1ccccc1 (stereo not drawn) [TRG 2421-41],5.76,5.60,
COc1ccc(CNC(CN)CCCCN2Cc3ccccc3C(CNCCc3ccccc3)C2c2cccc(C(F)(F)F)c2)cc1 (stereo not drawn) [TRG 2421-42],5.76,5.67,
COc1ccc(CCNCC2c3ccccc3CN(CCCCC(CN)NCc3ccccc3)C2c2cccc(C(F)(F)F)c2)cc1 (stereo not drawn) [TRG 2421-43],5.75,5.67,
COc1ccc(CCNCC2c3ccccc3CN(CCCCC(CN)NCc3ccc(OC)cc3)C2c2cccc(C(F)(F)F)c2)cc1 (stereo not drawn) [TRG 2421-44],5.85,5.81,
CCOc1ccc(CCNCC2c3ccccc3CN(CCCCC(CN)NCc3ccccc3)C2c2cccc(C(F)(F)F)c2)cc1 (stereo not drawn) [TRG 2421-45],5.56,6.01,
CCOc1ccc(CCNCC2c3ccccc3CN(CCCCC(CN)NCc3ccc(OC)cc3)C2c2cccc(C(F)(F)F)c2)cc1 (stereo not drawn) [TRG 2421-46],5.44,5.80,
COc1cccc(CCNCC2c3ccccc3CN(CCCCC(CN)NCc3ccccc3)C2c2cccc(C(F)(F)F)c2)c1 (stereo not drawn) [TRG 2421-47],5.86,5.57,
COc1ccc(CNC(CN)CCCCN2Cc3ccccc3C(CNCCc3cccc(OC)c3)C2c2cccc(C(F)(F)F)c2)cc1 (stereo not drawn) [TRG 2421-48],6.02,5.76,
"COc1ccc2c(c1)c(CC(=O)O)c(C)n2C(=O)c1ccc(Cl)cc1 [indomethacin, reference compound]",,,inhibition of arachidonic acid induced dermal inflammation [1]: inhibition of arachidonic acid induced dermal inflammation

# From US6608082B1, “Treatment of erectile dysfunction using isoquinoline compound melanocortin receptor ligands” (Lion Bioscience AG, priority 1998, dated 2003)
